In a melting point compilation (Tetko et al.; mined from patent text by program, amines drawn as free bases though some values may be those of a salt) one finds melting point data, which are given here for 89 compounds.

In general, melting point refers to the temperature, or range, at which the solid turns liquid.

Where only a bound is given, the exact number is not on record here.

For `CC1(C)Oc2ccc(S(=O)(=O)c3cccc(O)c3)cc2[C@@H](Nc2ccnc(Cl)n2)[C@]1(C)O`, the melting point is over 280 °C.

Turning to `N[C@@H](Cc1ccccc1)C(c1ccccc1)c1ccccc1`, the melting point fell in the range of 71 to 72 °C. The result for `CC(C)C(=O)NC1CCc2c(c3cc(-c4nnc(N)s4)ccc3n2Cc2cccc(F)c2)C1` (centres undefined) reads 251 to 254 °C; that for `N#Cc1cnn(-c2ccc(Cl)cc2Cl)c1NN`, 199 to 204 °C; that for `COc1cc2cc(-c3ccccc3C)sc2c(Cl)c1Cl`, 156 to 157 °C. The result for `C=CCN(C)C/C=C/COc1cc2c(cc1F)c(-c1ccc(Br)cc1)nn2C` reads 135 to 137 °C; that for `CC(C)(Oc1ccc(OCc2ccc3nn(-c4ccc(C(F)(F)F)cc4)cc3c2)cc1)C(=O)O`, 203 to 205 °C; that for `COC(=O)c1c(C)sc2cc(CCl)ccc12`, 78 to 79 °C. The result for `FC(F)(F)c1nnc(-c2ccc(Cl)cc2)n1-c1ccc(Cl)cc1` reads 184 °C; that for `COC(=O)[C@H](CC(C)C)NC(=O)OCC1c2ccccc2-c2ccccc21`, 86 to 87 °C; that for `CCCCCc1ccc(Oc2cccc(C=C3SC(=S)NC3=O)c2)cc1`, 125 to 127 °C. `COCC1(C)Oc2ccccc2C(n2ccccc2=O)C1O` (centres undefined) registered a melting point of 244 to 246 °C.

`CC(=O)n1ncc2c(O)ccc(C)c21` registered a melting point of 135 to 136 °C. The figure for `CC(C)(C)c1ncc(C=O)cn1` is 82 to 83 °C; for `CCCCCNC(=O)N(C)c1cccc(-c2ccc(CCC(=O)O)cc2)c1` it is 100 to 102 °C.

In the case of `CC1(C)CCn2c(nc(-c3ccccn3)cc2=O)N1`, the melting point lay in the range of 345 to 347 °C. The result for `COc1ccccc1NC(=O)Nc1nc(Nc2ccc3ccccc3c2)nc(N(CCC(=O)O)Cc2ccc(Cl)c(Cl)c2)n1` reads 115 to 120 °C; that for `CC(=O)OCc1cc(=O)n2c(ccn2-c2ccccc2)n1`, 172 to 175 °C.

In turn, `Cn1cc(C2=C(c3cn(C4CN(C(c5ccccc5)c5ccccc5)C4)c4ccccc34)C(=O)NC2=O)c2ccccc21` showed a melting point of 102 to 105 °C. The figure for `O=C(CN1CCOCC1)N[C@@H](Cc1cccc2ccccc12)C(=O)O` is 100 to 103 °C; for `O=C(NC1CN2CCC1CC2)c1cccc2nc(-c3ccccc3)oc12` (centres undefined) it is 179 to 180 °C. The result for `CCCCCCc1cc2c(s1)-n1c(C)nnc1CN=C2c1cccc(C)c1` reads 57 to 59 °C. The figure for `CCOc1cc2c(cc1S(N)(=O)=O)C(CNC(=O)c1cc(Cl)ccc1OC)CCO2` (centres undefined) is 204 to 205 °C; for `CNC(=O)N(C)C(=O)N1CCN(c2ccccc2)CC1` it is 79 to 80 °C.

In the case of `Oc1c(Cl)cc(Cn2c(=S)sc3ccccc32)cc1Cl`, the melting point fell in the range of 169 to 172 °C. The compound `O=C(O)Cn1nc(Br)nc1Br` yielded a melting point of 147 to 152 °C. `O=C1NC(=O)C2(CC(Br)c3ccccc32)N1` (centres undefined) gave a melting point of 58 to 65 °C. The figure for `O=C(Nc1cn(C2CCCCO2)nc1C(=O)NCCO)c1ccccn1` (centres undefined) is 214 to 215 °C; for `CC(C)C(=O)c1ccc(F)cc1O` it is 160 °C; for `CC(=O)c1cc([N+](=O)[O-])c(N)c2c1CCCC2` it is 170 to 172 °C.

`Cc1cc(Br)c2c(c1)C=C(C(=O)O)C(C(F)(F)F)O2` (centres undefined) showed a melting point of 237 to 238 °C. The figure for `CCS(=O)(=O)c1cc(C(=O)NCC2CCCN2CCC2CC2)c(OC)cc1N` (centres undefined) is 209 °C; for `CC1CN(C)Cc2cc(-c3ccccc3)n(Cc3ccccc3)c21` (centres undefined) it is 90 to 91 °C; for `CSc1nn2c(N(C)C)cc(C)nc2c1S(=O)(=O)c1ccc(C(C)C)cc1` it is 222 to 224 °C.

On to `COC1=C(OC)C(=O)c2c(cccc2[N+](=O)[O-])C1=O`, for which the melting point is 156 to 157 °C.

Consider `Nc1cc([N+](=O)[O-])ccc1Nc1cccc(-c2nccs2)c1`, for which the melting point lay in the range of 146 to 159 °C. The figure for `CCOCc1nc2c(N)nc3cc(-c4cccnc4)ccc3c2n1Cc1ccc(CN)cc1` is 211 to 214 °C. The figure for `COc1ccc2c(c1OC)CC[C@H]1[C@H]2CCCN1CCc1ccccc1` (relative stereo) is 110 to 111 °C; for `CSc1ccc2nc(NN)sc2c1` it is 173 to 176 °C.

`COC(=O)c1c(S(=O)(=O)NC(=O)Nc2nc(OC)cc(OC)n2)ccn1C` came in with a melting point of 182 to 186 °C. The figure for `CC1(C)Oc2ccc(OC(F)(F)F)cc2[C@@H](NC(=O)c2ccc(Cl)cc2[N+](=O)[O-])[C@@H]1O` is 64 to 66 °C; for `CN(CCO)c1nc2ccccc2o1` it is 62 to 63 °C. The result for `CCCCCCn1nc(-c2ccc(C(F)(F)F)cc2)cc1CCC(=O)c1ccc(OCC(=O)O)c(C)c1` reads 118 to 123 °C. The result for `CC1(C)OC(=O)C(=Cc2ccc(I)s2)C1=O` reads 182 to 184 °C; that for `CN1CC(C)(CCCl)Oc2ncccc2C1=S` (centres undefined), 119 to 121 °C.

For `COc1ccc(Sc2ccccc2CC(=O)O)cc1`, the melting point is 102 to 105 °C.

The compound `O=S(=O)(c1ccccc1)N1CCNc2ncc(I)cc21` came in with a melting point of 145 to 146 °C. The result for `COc1ccc2cc(-c3nccn3C)ccc2n1` reads 116 to 118 °C. The figure for `COC(=O)c1ccc(C(=O)N2CCN(C(=O)c3ccc(C(=O)OC)cc3)CC2)cc1` is 234 to 237 °C; for `CC1(C)COC(=O)N1c1nc(-c2ccc(Cl)c(F)c2)cs1` it is 140 to 142 °C; for `COc1cc(C=O)ccc1OCc1csc(N2CCOCC2)n1` it is 122 to 123 °C. With `c1cc(-n2ccnc2)nc(-n2cnc3cc(-c4ccoc4)ccc32)c1`, the melting point was 170 to 173 °C. The result for `OC1CNc2nc3ccccc3n2C1` (centres undefined) reads 158 to 160 °C. `O=C1C=C(NC(=O)C(=O)c2cn(Cc3c(F)c(F)c(F)c(F)c3F)c3ccccc23)CO1` came in with a melting point of 280 to 282 °C. The figure for `COc1cc(C(O)c2ccccc2S(=O)(=O)Nc2ccccc2C)cc2c1OCO2` (centres undefined) is 155 to 158 °C. The result for `COC(=O)c1ccc(Cn2nnc3ccc(NC(=O)OC4CCCC4)cc32)c(OC)c1` reads 142 to 143 °C; that for `Cc1cn(C)c2c1N(C(=O)CN1CCCC1)c1ccccc1NC2=O`, 210 to 212 °C; that for `O=c1cc(CBr)c2c(Cl)cc(Cl)cc2[nH]1`, 299 to 301 °C. Compound `CCOc1cc2oc(=O)c3c(c2cc1OCC)CCN(CC(C)=O)C3` showed a melting point of 146 to 148 °C. The figure for `CCCCNc1c(C)cccc1C` is 124 to 131 °C. Compound `COc1cc(OC)cc(S(=O)(=O)c2ccc(N)c(C)c2)c1` displayed a melting point of 121 to 123 °C. The result for `CC(C)(O)C(=O)Nc1ccc(Sc2ccccc2)cc1F` reads 91 to 92.5 °C. The figure for `CCN(CC)C(=O)COC(=O)c1cc(S(N)(=O)=O)c(Cl)cc1NCc1ccco1` is 135 to 136 °C; for `COc1cc(OC)c2c(=O)[nH]c(-c3ccc(N4CCN(C)CC4)cc3)nc2c1` it is 252 to 254 °C; for `Nc1nc2c(ncn2COCC(COC(=O)COc2ccccc2)OC(=O)COc2ccccc2)c(=O)[nH]1` (centres undefined) it is 95 to 100 °C. For `CC(C)(Cl)c1ccc(-c2ccc(C(C)(C)Cl)cc2)cc1`, the melting point lay in the range of 96 to 98 °C.

The compound `CCOC(=O)c1cc(OCc2ccccc2)c2ccc(Br)cc2c1` returned a melting point of 105 °C. `Nc1ccc(Oc2ccccc2-c2ccccc2Oc2ccc(N)cc2)cc1` had a melting point of 157 to 158 °C. The figure for `O=c1[nH]c2c(CCO)c3ccccc3n2c2ccccc12` is 248 to 252 °C; for `CC(C)(C)C1=C(C#N)C(c2ccccc2Cl)c2c[nH]nc2N1` (centres undefined) it is 198 °C; for `COC(=O)c1cc(Br)c(O)c(Br)n1` it is 148 to 150 °C.

Turning to `Cc1c(NC(=O)CC(C)(C)C)cc2c(c1C)OC(C)(C)C2(O)Cc1ccc(C(C)C)cc1` (centres undefined), the melting point is 177 to 178 °C.

The compound `CCSc1cnc(OCCOc2ncnc(NS(=O)(=O)c3ccc(C(C)(C)C)cc3)c2-c2ccc(C)cc2)nc1` gave a melting point of 177 to 178 °C. `O=C1CCCCN1C1=CC(CF)(CF)Oc2ccc(C(F)(F)F)cc21`: the melting point is 166 to 168 °C. The figure for `CCOC(=O)c1ccc(C(=O)CC(O)(c2cc(Cl)cc(Cl)c2)C(F)(F)F)cc1C` (centres undefined) is 72 to 74 °C. `CCCOc1c(OC)cc([N+](=O)[O-])c2ncccc12`: the melting point was in the range of 100 to 104 °C. The result for `CC(=O)Oc1cc2cc[nH]c2cc1OC(C)=O` reads 130 to 131 °C.

Take `Cc1c(CCCC=CC(=O)O)cccc1Cc1ccc(Cl)cc1`: the melting point amounted to 115 °C. Take `C[C@@H](NC(=O)[C@@H](NC(=O)OCc1ccccc1)C(Cc1ccccc1)C(=O)O)C(=O)O` (some centres undefined): the melting point was 158 to 159 °C. The result for `O=C(c1cc(-c2ccc(Cl)cc2)c(N2CCOCC2)s1)c1cc(-c2ccc(Cl)cc2)c(N2CCOCC2)s1` reads 135 to 136 °C; that for `CCOCCO[C@@H]1c2ccn3c(C)c(C)nc3c2N[C@H](c2ccccc2)[C@H]1OC(=O)OCCCC(Cl)CC` (some centres undefined), 124 °C; that for `O=C(O)COc1cccc2c1CCc1sc(SC(c3cccc(F)c3)c3cccc(F)c3)nc1-2`, 155 to 158 °C. The result for `COc1cc(OC)c(-c2cncnc2)cc1/C=C/C(=O)c1ccc(C(=O)O)cc1` reads over 260 °C. The figure for `CC(=O)Nc1nc2c(s1)-c1c(c(-c3c[nH]cn3)nn1-c1ccccc1C(F)(F)F)CC2` is over 300 °C; for `O=C(O)c1cc(-c2ccc(OC(F)(F)F)cc2)c2c3c(ccc2c1)OCO3` it is 296 to 300 °C. On to `CC(C)Nc1c(-c2c(F)cc(F)cc2F)c(Cl)nc2ncccc12`, for which the melting point is 193 °C. For `CCOC(=O)c1c(-c2cccc(F)c2)c(C#N)n2c1CN(C(=O)OC(C)(C)C)CC2`, the melting point lay within 129 to 131 °C. Compound `COc1ccc(-c2cc(C)c3nc(OC)ccc3c2)cc1` gave a melting point of 104 to 106 °C. The result for `CCOC(=O)CN1C(=O)COc2cc(F)ccc21` reads 90 to 91.5 °C.
